The values that follow come from patent publication US8354441B2, “Oxazoline derivatives” (Hoffmann-La Roche Inc., priority 2009, dated 2013).

SMILES strings stand for the structures.

The target in one assay is T1, mouse TAAR1 (Mus musculus, UniProt Q923Y8).
T1 construct: expressed in transfected cells; host or cells: HEK293 (ATCC # CRL-1573), stably transfected with pIRESneo2 expression plasmid
In words: TAAR1 radioligand binding with [3H]-rac-2-(1,2,3,4-tetrahydro-1-naphthyl)-2-imidazoline, membranes of stably transfected HEK293 cells. Particulars: first value of the cell, read-out: Ki (μM) mouse/rat: mouse. In short, it runs like this: (§1)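 Competition binding: competitors spanning 10 pM–30 μM displace 60 nM [3H]-rac-2-(1,2,3,4-tetrahydro-1-naphthyl)-2-imidazoline from stably transfected HEK293 membranes (mouse or rat receptor), 30 min, 4 °C, pH 7.0 buffer with Mg2+/Ca2+. Bound label counted after GF/C filtration; 10 μM unlabelled ligand defines non-specific binding.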

The target of another assay is T2, rat TAAR1 (Rattus norvegicus, UniProt Q923Y9).
T2 construct: expressed in transfected cells; host or cells: HEK293 (ATCC # CRL-1573), stably transfected with pIRESneo2 expression plasmid
T2 sequence (Q923Y9 whole entry): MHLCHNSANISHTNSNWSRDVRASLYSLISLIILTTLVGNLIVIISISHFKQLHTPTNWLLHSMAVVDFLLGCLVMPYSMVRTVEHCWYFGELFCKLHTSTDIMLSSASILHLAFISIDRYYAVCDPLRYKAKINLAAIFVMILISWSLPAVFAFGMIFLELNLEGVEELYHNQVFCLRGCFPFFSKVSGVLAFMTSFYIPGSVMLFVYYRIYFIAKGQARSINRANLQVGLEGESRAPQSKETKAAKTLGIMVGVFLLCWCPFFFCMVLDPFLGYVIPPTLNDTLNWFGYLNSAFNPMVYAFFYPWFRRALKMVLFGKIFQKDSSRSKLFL
The assay is described as above. The following applies: second value of the cell, read-out: Ki (μM) mouse/rat: rat. In short, it runs like this: as §1

T1 sequence (Q923Y8 whole entry): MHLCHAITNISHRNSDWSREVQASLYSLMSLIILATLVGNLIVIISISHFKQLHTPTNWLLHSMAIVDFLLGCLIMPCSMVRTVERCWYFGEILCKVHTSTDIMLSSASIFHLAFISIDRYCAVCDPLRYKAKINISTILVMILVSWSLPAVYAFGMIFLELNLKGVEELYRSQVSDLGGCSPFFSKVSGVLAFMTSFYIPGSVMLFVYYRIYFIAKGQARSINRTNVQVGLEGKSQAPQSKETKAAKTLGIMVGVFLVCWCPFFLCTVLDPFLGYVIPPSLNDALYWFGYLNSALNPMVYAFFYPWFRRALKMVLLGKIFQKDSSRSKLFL

In the case of `C#Cc1ccc(C(=O)Nc2ccc(CC[C@H]3COC(N)=N3)cc2)cc1` [Example 62, N-{4-[2-((S)-2-Amino-4,5-dihydro-oxazol-4-yl)-ethyl]-phenyl}-4-ethynyl-benzamide], the Ki on mouse TAAR1 was determined as 0.0003 µM; at rat TAAR1, 0.0005 µM.

For `CC(C)c1cncc(C(=O)Nc2ccc(CC[C@H]3COC(N)=N3)cc2)n1` [Example 230, (S)-N-(4-(2-(2-Amino-4,5-dihydrooxazol-4-yl)ethyl)phenyl)-6-isopropylpyrazine-2-carboxamide], the Ki at mouse TAAR1 is 0.0009 µM; on rat TAAR1, 0.0016 µM.

Take `NC1=N[C@@H](CCc2ccc(NC(=O)c3ccc4ccccc4n3)cc2)CO1` [Example 91, Quinoline-2-carboxylic acid {4-[2-((S)-2-amino-4,5-dihydro-oxazol-4-yl)-ethyl]-phenyl}-amide]: the Ki at mouse TAAR1 came to 0.0005 µM; at rat TAAR1, 0.0002 µM.

`CCc1nc(C(=O)Nc2ccc(CC[C@H]3COC(N)=N3)cc2)co1` [Example 217, (S)-N-(4-(2-(2-Amino-4,5-dihydrooxazol-4-yl)ethyl)phenyl)-2-ethyloxazole-4-carboxamide]: the Ki on mouse TAAR1 turned out to be 0.0051 µM; at rat TAAR1 it was 0.0025 µM.

In the case of `NC1=N[C@@H](CCc2ccc(NC(=O)C3(c4ccc(Cl)cc4)CC3)cc2)CO1` [Example 53, 1-(4-Chloro-phenyl)-cyclopropanecarboxylic acid {4-[2-((S)-2-amino-4,5-dihydro-oxazol-4-yl)-ethyl]-phenyl}-amide], the Ki at mouse TAAR1 was found to be 0.0009 µM; at rat TAAR1, 0.0016 µM.

Turning to `CCOc1ccc(CC(=O)Nc2ccc(CC[C@H]3COC(N)=N3)cc2)cc1` [Example 66, N-{4-[2-((S)-2-Amino-4,5-dihydro-oxazol-4-yl)-ethyl]-phenyl}-2-(4-ethoxy-phenyl)-acetamide], the results for the Ki on mouse TAAR1 and on rat TAAR1 were 0.0026 µM and 0.0017 µM, respectively.

On to `NC1=N[C@@H](CCCc2ccc(NC(=O)c3ccc(Cl)cc3)cc2)CO1` [Example 8, N-{4-[3-((S)-2-Amino-4,5-dihydro-oxazol-4-yl)-propyl]-phenyl}-4-chloro-benzamide], for which the Ki on mouse TAAR1 amounted to 0.0034 µM; at rat TAAR1, 0.0001 µM.

`CC[C@@H](C[C@H]1COC(N)=N1)c1ccc(NC(=O)Nc2ccc(F)cc2)cc1` [Example 12, 1-{4-[(S)-1-((S)-2-Amino-4,5-dihydro-oxazol-4-ylmethyl)-propyl]-phenyl}-3-(4-fluoro-phenyl)-urea]: the Ki on mouse TAAR1 worked out at 0.0012 µM; on rat TAAR1 it was 0.002 µM.

Take `Cc1nc(C(=O)Nc2ccc(CC[C@H]3COC(N)=N3)cc2)c(C)o1` [Example 179, (S)-N-(4-(2-(2-Amino-4,5-dihydrooxazol-4-yl)ethyl)phenyl)-2,5-dimethyloxazole-4-carboxamide]: the Ki was 0.0059 µM at mouse TAAR1 and 0.0023 µM at rat TAAR1.

Regarding `CCc1cnc(C(=O)Nc2ccc(CC[C@H]3COC(N)=N3)cc2)cn1` [Example 208, (S)-N-(4-(2-(2-Amino-4,5-dihydrooxazol-4-yl)ethyl)phenyl)-5-ethylpyrazine-2-carboxamide], the Ki at mouse TAAR1 was 0.0028 µM; at rat TAAR1, 0.0023 µM.

Consider `CC(C(=O)Nc1ccc(CC[C@H]2COC(N)=N2)cc1)c1cccc(C(F)(F)F)c1` (stereo partly drawn) [Example 81, N-{4-[2-((S)-2-Amino-4,5-dihydro-oxazol-4-yl)-ethyl]-phenyl}-2-(3-trifluoromethyl-phenyl)-propionamide], for which the Ki came to 0.001 µM at mouse TAAR1 and 0.0022 µM at rat TAAR1.

Take `CCOc1ccc(C(=O)Nc2ccc(CC[C@H]3COC(N)=N3)cc2)nc1` [Example 153, (S)-N-(4-(2-(2-Amino-4,5-dihydrooxazol-4-yl)ethyl)phenyl)-5-ethoxypicolinamide]: the Ki at mouse TAAR1 turned out to be 0.0009 µM; at rat TAAR1, 0.001 µM.

On to `CC(C)(C)c1cc(C(=O)Nc2ccc(CC[C@H]3COC(N)=N3)cc2)ccn1` [Example 197, (S)-N-(4-(2-(2-Amino-4,5-dihydrooxazol-4-yl)ethyl)phenyl)-2-tert-butylisonicotinamide], for which the Ki at mouse TAAR1 turned out to be 0.003 µM; on rat TAAR1, 0.0049 µM.

With `NC1=N[C@@H](CCc2ccc(NC(=O)c3cnc(N4CCCCC4)nc3)cc2)CO1` [Example 123, (S)-N-(4-(2-(2-Amino-4,5-dihydrooxazol-4-yl)ethyl)phenyl)-2-(piperidin-1-yl)pyrimidine-5-carboxamide], the Ki at mouse TAAR1 is 0.0007 µM; at rat TAAR1 it was 0.0017 µM.

As to `NC1=N[C@@H](CCc2ccc(NC(=O)C3(C(F)(F)F)CC3)cc2)CO1` [Example 52, 1-Trifluoromethyl-cyclopropanecarboxylic acid {4-[2-((S)-2-amino-4,5-dihydro-oxazol-4-yl)-ethyl]-phenyl}-amide], the Ki on mouse TAAR1 stood at 0.0073 µM; at rat TAAR1 it was 0.006 µM.

As for `NC1=N[C@@H](CCc2ccc(NC(=O)c3ccc(Cl)cc3)cc2)CO1` [Example 9, N-{4-[2-((S)-2-Amino-4,5-dihydro-oxazol-4-yl)-ethyl]-phenyl}-4-chloro-benzamide], the Ki at mouse TAAR1 was 0.0002 µM; at rat TAAR1 it was 0.0004 µM.

As to `NC1=N[C@@H](CCc2ccc(NC(=O)c3ccc(F)nc3F)cc2)CO1` [Example 110, N-{4-[2-((S)-2-Amino-4,5-dihydro-oxazol-4-yl)-ethyl]-phenyl}-2,6-difluoro-nicotinamide], the Ki stood at 0.0054 µM on mouse TAAR1 and 0.0048 µM at rat TAAR1.

For `NC1=N[C@@H](CCc2ccc(NC(=O)c3ncc(C(F)(F)F)cc3Cl)cc2)CO1` [Example 101, 3-Chloro-5-trifluoromethyl-pyridine-2-carboxylic acid {4-[2-((S)-2-amino-4,5-dihydro-oxazol-4-yl)-ethyl]-phenyl}-amide], the Ki on mouse TAAR1 was 0.0007 µM; on rat TAAR1 it was 0.0021 µM.

Turning to `NC1=N[C@@H](CCc2ccc(NC(=O)c3ccn(C(F)F)n3)cc2)CO1` [Example 195, (S)-N-(4-(2-(2-Amino-4,5-dihydrooxazol-4-yl)ethyl)phenyl)-1-(difluoromethyl)-1H-pyrazole-3-carboxamide], the figures for the Ki at mouse TAAR1 and on rat TAAR1 were 0.0037 µM and 0.0023 µM, respectively.

Turning to `CCc1ocnc1C(=O)Nc1ccc(CC[C@H]2COC(N)=N2)cc1` [Example 213, (S)-N-(4-(2-(2-Amino-4,5-dihydrooxazol-4-yl)ethyl)phenyl)-5-ethyloxazole-4-carboxamide], the Ki on mouse TAAR1 stood at 0.0015 µM; at rat TAAR1, 0.0022 µM.

For the compound `NC1=N[C@@H](CCc2ccc(NC(=O)c3ccc(Cl)nn3)cc2)CO1` [Example 122, (S)-N-(4-(2-(2-Amino-4,5-dihydrooxazol-4-yl)ethyl)phenyl)-6-chloropyridazine-3-carboxamide], the Ki at mouse TAAR1 and on rat TAAR1 was 0.0043 µM throughout.

For the compound `Cc1ocnc1C(=O)Nc1ccc(CC[C@@H]2N=C(N)O[C@H]2C)cc1` [Example 222, 5-Methyl-oxazole-4-carboxylic acid {4-[2-((4S,5S)-2-amino-5-methyl-4,5-dihydro-oxazol-4-yl)-ethyl]-phenyl}-amide], the figures for the Ki on mouse TAAR1 and at rat TAAR1 were 0.0071 µM and 0.004 µM, respectively.

For `NC1=N[C@@H](CCc2ccc(NC(=O)c3cncc(F)c3)cc2)CO1` [Example 100, N-{4-[2-((S)-2-Amino-4,5-dihydro-oxazol-4-yl)-ethyl]-phenyl}-5-fluoro-nicotinamide], the Ki was found to be 0.004 µM at mouse TAAR1 and 0.0018 µM at rat TAAR1.

Regarding `COc1cc(Cl)ccc1C(=O)Nc1ccc(CC[C@H]2COC(N)=N2)cc1` [Example 138, (S)-N-(4-(2-(2-Amino-4,5-dihydrooxazol-4-yl)ethyl)phenyl)-4-chloro-2-methoxybenzamide], the Ki at mouse TAAR1 and on rat TAAR1 was 0.0002 µM in each case.
